# Counter-ions that a name gives are not always drawn.
# Target: AaDOP2 (Aedes aegypti, UniProt H6D5H2)
# Experiment: AaDOP2 antagonist screen of the LOPAC1280 library (HEK-CRELuc-Aadop2 cells, luminescence)
# Type: cell-based
# Conditions: not given
# Chain of AaDOP2 (H6D5H2 1-476): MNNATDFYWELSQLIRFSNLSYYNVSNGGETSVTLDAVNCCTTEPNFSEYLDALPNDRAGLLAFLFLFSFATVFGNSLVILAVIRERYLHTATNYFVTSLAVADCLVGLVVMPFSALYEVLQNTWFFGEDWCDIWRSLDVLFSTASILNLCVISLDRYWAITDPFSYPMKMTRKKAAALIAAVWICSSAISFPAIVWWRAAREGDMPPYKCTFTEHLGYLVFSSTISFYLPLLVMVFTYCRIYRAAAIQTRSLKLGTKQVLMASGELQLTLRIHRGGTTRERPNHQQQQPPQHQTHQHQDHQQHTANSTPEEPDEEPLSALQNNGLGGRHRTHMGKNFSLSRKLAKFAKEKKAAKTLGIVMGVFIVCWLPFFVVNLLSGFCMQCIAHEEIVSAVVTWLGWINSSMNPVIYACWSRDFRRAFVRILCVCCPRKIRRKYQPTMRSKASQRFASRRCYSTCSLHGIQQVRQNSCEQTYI
row,Molecule,"Compound effect (percent receptor signaling in presence of test compound, relative lux units relative to the SCH23390 control)"
1,"COc1ccccc1NC(=O)Nc1nc(-c2cccnc2)nc2ccccc12 [Compound 1253, VUF 5574]",111
2,"CCOC(=O)C1=C[C@]2(CC)CCCN3CCc4c(n1c1ccccc41)[C@@H]32 [Compound 1254, Vinpocetine]",148
3,"CC[C@]1(O)C[C@H]2CN(CCc3c([nH]c4ccccc34)[C@@](C(=O)OC)(c3cc4c(cc3OC)N(C=O)[C@H]3[C@@](O)(C(=O)OC)[C@H](OC(C)=O)[C@]5(CC)C=CCN6CC[C@]43[C@@H]65)C2)C1 [Compound 1257, Vincristine sulfate]",98
4,"COc1cc2ncnc(Nc3ccc(O)cc3)c2cc1OC [Compound 1260, WHI-P131]",90
5,"COC[C@H]1OC(=O)c2coc3c2[C@@]1(C)C1=C(C3=O)[C@@H]2CCC(=O)[C@@]2(C)C[C@H]1OC(C)=O [Compound 1261, Wortmannin from Penicillium funiculosum]",42
6,"CC(N)=NCc1cccc(CN)c1.Cl.Cl [Compound 1262, 1400W dihydrochloride]",96
7,"CS(=O)(=O)O.Cc1c(C(=O)c2cccc3ccccc23)c2cccc3c2n1[C@H](CN1CCOCC1)CO3 [Compound 1264, (R)-(+)-WIN 55,212-2 mesylate]",58
8,"C#C[C@]1(O)CC[C@H]2[C@@H]3CCC4=Cc5nc6nc7ccccc7n6cc5C[C@]4(C)[C@H]3CC[C@@]21C [Compound 1265, WIN 62,577]",59
9,"Cc1cccc(C)c1N=C1NCCCS1 [Compound 1269, Xylazine hydrochloride]",134
10,"O=C(NCCNCC(O)COc1ccc(O)cc1)N1CCOCC1 (stereo not drawn) [Compound 1270, Xamoterol hemifumarate]",112
11,"Cc1cc(C(C)(C)C)cc(C)c1CC1=NCCN1 [Compound 1271, Xylometazoline hydrochloride]",85
12,"CCCn1c(=O)c2[nH]c(-c3ccc(OCC(=O)NCCN)cc3)nc2n(CCC)c1=O [Compound 1272, Xanthine amine congener]",90
13,"COC(=O)[C@@H]1[C@H]2C[C@H]3c4[nH]c5ccccc5c4CCN3C[C@@H]2CC[C@@H]1O [Compound 1273, Yohimbine hydrochloride]",85
14,"OCc1ccc(-c2nn(Cc3ccccc3)c3ccccc23)o1 [Compound 1275, YC-1]",136
15,"CCCOc1ccccc1-c1nc2nn[nH]c2c(=O)[nH]1 [Compound 1276, Zaprinast]",115
16,"NS(=O)(=O)Cc1noc2ccccc12 [Compound 1277, Zonisamide sodium]",130
17,"COc1cc(-c2ccc(=O)[nH]n2)ccc1OC(F)F [Compound 1278, Zardaverine]",125
18,"CN1CCN(C(=O)OC2c3nccnc3C(=O)N2c2ccc(Cl)cn2)CC1 (stereo not drawn) [Compound 1279, Zopiclone]",99
19,"CN(C)C/C=C(/c1ccc(Br)cc1)c1cccnc1 [Compound 1280, Zimelidine dihydrochloride]",80
20,"(-)-Bicuculline methbromide, 1(S), 9(R) [Compound 202]",94
21,(-)-Eseroline fumarate [Compound 504],56

row,Molecule,"Compound effect (percent receptor signaling in presence of test compound, relative lux units relative to the SCH23390 control)"
1,(-)-Scopolamine methyl nitrate [Compound 1087],113
2,"Adenosine 3',5'-cyclic monophosphate [Compound 105]",100
3,"Histamine, R(-)-alpha-methyl-, dihydrochloride [Compound 622]",127
4,MHPG piperazine [Compound 577],104
5,NCS-356 [Compound 849],99
6,NS 521 oxalate [Compound 869],75
7,OXA-22 iodide [Compound 326],88
8,Oligomycin A [Compound 906],82
9,Phenylbenzene-omega-phosphono-alpha-amino acid [Compound 1021],95
10,Picrotoxin [Compound 924],98
11,R(-)-Apocodeine hydrochloride [Compound 435],98
12,R(-)-Me5 [Compound 734],93
13,R(-)-Propylnorapomorphine hydrochloride [Compound 436],99
14,R-(-)-Deprenyl hydrochloride [Compound 813],93
15,R-(-)-Desmethyldeprenyl hydrochloride [Compound 407],90
16,S(-)-Timolol maleate [Compound 1191],88
17,SB 224289 hydrochloride [Compound 1142],95
18,SKF 95282 dimaleate [Compound 1237],96
19,"Seglitide [Compound 1079, reference compound]",102
20,VER-3323 hemifumarate salt [Compound 706],82
21,WB 64 [Compound 1263],83

# Same assay, conditions: 10 µM compound, 300 nM dopamine, 2 hr; hit = compound effect <20
row,Molecule,"Compound effect (percent receptor signaling in presence of test compound, relative lux units relative to the SCH23390 control)"
1,"N[C@@H](Cn1ccc(=O)[nH]c1=O)C(=O)O [Compound 1266, S(-)-Willardiine]",99%
2,"COc1ccccc1N1CCN(CCN(C(=O)C2CCCCC2)c2ccccn2)CC1.O=C(O)/C=C\C(=O)O [Compound 1267, WAY-100635 maleate]",101%
3,"N[C@@H](Cn1cc(I)c(=O)[nH]c1=O)C(=O)O [Compound 1268, S-5-Iodowillardiine]",130%
4,"COc1ccc(CCN(C)CCc2ccc(OC)c(OC)c2)cc1OC.Cl [Compound 1274, YS-035 hydrochloride]",93%
5,(+)-Catechin Hydrate [Compound 230],111%
6,(-)-Perillic acid [Compound 965],87%
7,"(±)-PD 128,907 hydrochloride [Compound 1024]",95%
8,(±)-Pindobind [Compound 1010],65%
9,Ceramide [Compound 235],87%
10,Cortexolone maleate [Compound 1081],83%
11,"Dequalinium analog, C-14 linker [Compound 368]",39%
12,IMID-4F hydrochloride [Compound 639],109%
13,"L-Leucinethiol, oxidized dihydrochloride [Compound 709]",81%
14,"MDL 26,630 trihydrochloride [Compound 828]",93%
15,Pyrazinecarboxamide [Compound 966],79%
16,"R(-)-2,10,11-Trihydroxy-N-propylnoraporphine hydrobromide [Compound 438]",88%
17,R(-)-Isoproterenol (+)-bitartrate [Compound 640],118%
18,S-Nitroso-N-acetylpenicillamine [Compound 846],88%
19,SKF 83565 hydrobromide [Compound 1096],57%
20,TFPI hydrochloride [Compound 1197],96%
21,cis-(±)-8-OH-PBZI hydrobromide [Compound 918],88%
